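Following 48 hours of exposure in 96-well plates, responses at five concentrations were used to interpolate endpoints linearly. Abbreviation: GI50, concentration required for 50% inhibition of growth.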 The source made the active and inactive calls. Rule as the data show it: active = GI50 up to about 1.1 µM and inactive = higher.
Key:
Assay in all cases: DTP human tumour cell line panel, 48 h
SF-268 = test system: SF-268
NCI-H522 = test system: NCI-H522
OVCAR-4 = test system: OVCAR-4
SR = test system: SR
UO-31 = test system: UO-31
SN12C = test system: SN12C
A498 = test system: A498
OVCAR-3 = test system: OVCAR-3
MDA-MB-231 = test system: MDA-MB-231
M14 = test system: M14
COLO 205 = test system: COLO 205
LOX IMVI = test system: LOX IMVI
SK-MEL-5 = test system: SK-MEL-5
Malme-3M = test system: Malme-3M
MOLT-4 = test system: MOLT-4
ACHN = test system: ACHN
IGROV-1 = test system: IGROV-1
UACC-257 = test system: UACC-257
RXF 393 = test system: RXF 393

Measured: GI50

Cc1nn(CN2CCN(C)CC2)c(=S)n1/N=C/c1ccc(-c2ccc(Cl)cc2Cl)o1
inactive: SF-268 92.5 µM | NCI-H522 > 100 µM | OVCAR-4 37.4 µM | SR 37 µM | UO-31 92.9 µM | SN12C > 100 µM | A498 19.2 µM | OVCAR-3 64 µM | MDA-MB-231 63.8 µM | M14 > 100 µM | COLO 205 > 100 µM | LOX IMVI 60.7 µM | SK-MEL-5 43.3 µM | Malme-3M > 100 µM | MOLT-4 30.5 µM | ACHN > 100 µM | IGROV-1 81.8 µM | UACC-257 66.7 µM

COc1ccc(C#CC(=O)O)c(OC)c1
inactive: OVCAR-4 > 100 µM | SR > 100 µM | UO-31 > 100 µM | SN12C > 100 µM | A498 > 100 µM | OVCAR-3 > 100 µM | MDA-MB-231 > 100 µM | M14 > 100 µM | COLO 205 > 100 µM | LOX IMVI > 100 µM | SK-MEL-5 > 100 µM | Malme-3M > 100 µM | MOLT-4 > 100 µM | ACHN > 100 µM | UACC-257 > 100 µM

CC(C)(Br)C(Br)CCC(C)(Br)C(Br)CO (stereo not given)
inactive: SF-268 > 10 µM | NCI-H522 > 10 µM | OVCAR-4 > 10 µM | UO-31 > 10 µM | SN12C > 10 µM | A498 > 10 µM | OVCAR-3 > 10 µM | MDA-MB-231 > 10 µM | M14 > 10 µM | COLO 205 > 10 µM | RXF 393 > 10 µM | SK-MEL-5 > 10 µM | Malme-3M > 10 µM | MOLT-4 > 10 µM | ACHN > 10 µM | IGROV-1 > 10 µM | UACC-257 > 10 µM

Cc1nc2sc(CCl)nn2c(=O)c1Cl
inactive: SF-268 14.2 µM | NCI-H522 3.15 µM | OVCAR-4 15.7 µM | SR 4.61 µM | UO-31 14.2 µM | SN12C 12.3 µM | OVCAR-3 15.9 µM | MDA-MB-231 20.5 µM | M14 12.1 µM | COLO 205 16.7 µM | LOX IMVI 1.92 µM | RXF 393 4.57 µM | SK-MEL-5 5.07 µM | Malme-3M 11.2 µM | MOLT-4 6.03 µM | ACHN 15.7 µM | IGROV-1 15 µM | UACC-257 12.3 µM

O=C(Nc1ccc(Cl)c(Cl)c1)OCCN1c2ccccc2Sc2ccccc21
inactive: SF-268 > 10 µM | NCI-H522 > 10 µM | OVCAR-4 > 10 µM | SR > 10 µM | SN12C > 10 µM | OVCAR-3 > 10 µM | MDA-MB-231 > 10 µM | M14 > 10 µM | COLO 205 > 10 µM | LOX IMVI > 10 µM | SK-MEL-5 > 10 µM | Malme-3M > 10 µM | MOLT-4 > 10 µM | ACHN > 10 µM | IGROV-1 > 10 µM | UACC-257 > 10 µM

Cc1cc2nc(N3C(=O)/C(=C/Cc4ccco4)N=C3c3ccccc3)sc2cc1C
inactive: SF-268 40.4 µM | OVCAR-4 29.5 µM | SR 38.4 µM | UO-31 26.6 µM | SN12C 25.6 µM | OVCAR-3 22.3 µM | MDA-MB-231 51.5 µM | M14 35.6 µM | COLO 205 28 µM | LOX IMVI 25.9 µM | RXF 393 13.6 µM | SK-MEL-5 22.3 µM | MOLT-4 20.3 µM | ACHN 26.7 µM | IGROV-1 21.3 µM | UACC-257 26 µM

N#Cc1nc(Cc2cccs2)oc1N
inactive: SF-268 > 100 µM | SR > 100 µM | UO-31 27.5 µM | SN12C > 100 µM | A498 > 100 µM | MDA-MB-231 > 100 µM | M14 > 100 µM | LOX IMVI > 100 µM | RXF 393 > 100 µM | SK-MEL-5 > 100 µM | MOLT-4 > 100 µM | ACHN > 100 µM | IGROV-1 > 100 µM | UACC-257 > 100 µM

CC(=O)NCCc1c[nH]c2ccc(Cl)cc12
inactive: SF-268 > 100 µM | NCI-H522 91 µM | OVCAR-4 > 100 µM | SR > 100 µM | UO-31 > 100 µM | SN12C > 100 µM | OVCAR-3 > 100 µM | MDA-MB-231 > 100 µM | M14 90.2 µM | COLO 205 > 100 µM | LOX IMVI > 100 µM | RXF 393 > 100 µM | SK-MEL-5 > 100 µM | Malme-3M > 100 µM | MOLT-4 > 100 µM | ACHN > 100 µM | IGROV-1 > 100 µM | UACC-257 > 100 µM

CC(C)(O)C1COC2=C1C(=O)c1ccccc1C2=O (stereo not given)
inactive: SF-268 21.6 µM | NCI-H522 47.1 µM | OVCAR-4 71 µM | UO-31 81.1 µM | SN12C 27.8 µM | A498 > 100 µM | OVCAR-3 24.9 µM | MDA-MB-231 38.7 µM | M14 35.6 µM | COLO 205 82 µM | LOX IMVI 19.2 µM | SK-MEL-5 22.3 µM | MOLT-4 25.6 µM | ACHN 48.2 µM | IGROV-1 40.6 µM | UACC-257 71.9 µM

Clc1ccc(-c2cn3c(nc4ccccc43)c(/C=C/c3cccs3)n2)cc1
inactive: SF-268 72.8 µM | OVCAR-4 34.7 µM | SR 5.09 µM | UO-31 > 100 µM | SN12C > 100 µM | A498 > 100 µM | OVCAR-3 > 100 µM | MDA-MB-231 53.7 µM | M14 > 100 µM | COLO 205 > 100 µM | LOX IMVI > 100 µM | RXF 393 > 100 µM | SK-MEL-5 > 100 µM | Malme-3M > 100 µM | ACHN > 100 µM | IGROV-1 92 µM | UACC-257 52.6 µM

Cc1nc(C(N)=S)sc1C(=O)CC(=O)C(=O)Nc1ccc(Br)cc1
inactive: SF-268 > 100 µM | NCI-H522 66.4 µM | OVCAR-4 > 100 µM | UO-31 > 100 µM | SN12C > 100 µM | A498 > 100 µM | OVCAR-3 > 100 µM | MDA-MB-231 > 100 µM | M14 > 100 µM | LOX IMVI > 100 µM | RXF 393 > 100 µM | SK-MEL-5 > 100 µM | Malme-3M > 100 µM | ACHN > 100 µM | IGROV-1 > 100 µM | UACC-257 > 100 µM

Cn1c2ccccc2c(=O)c2c(O)cc3c(c21)C1OCC(C)(O)C1O3 (stereo not given)
inactive: SF-268 26.6 µM | OVCAR-4 > 100 µM | SR 46.7 µM | UO-31 5.4 µM | SN12C 58.2 µM | MDA-MB-231 > 100 µM | M14 > 100 µM | COLO 205 51.1 µM | RXF 393 22.5 µM | SK-MEL-5 50.2 µM | MOLT-4 28.2 µM | ACHN 67.8 µM | IGROV-1 25.3 µM | UACC-257 > 100 µM
